This note sets out measurements from ChEMBL document CHEMBL1145898, “Molecular docking studies of natural cholinesterase-inhibiting steroidal alkaloids from Sarcococca saligna” (J Med Chem, 2003).

The target of assay [1] is T1, Acetylcholinesterase (Torpedo californica, UniProt P04058). Kind of assay: In vitro anticholinesterase activity was determined against acetylcholinesterase from Torpedo californica. Also noted: species or system Tetronarce californica.
Assay [2] deals with T1, Acetylcholinesterase. Kind of assay: In vitro binding affinity was determined against acetylcholinesterase from torpedo californica. Also on record: species or system Tetronarce californica.

T1 sequence (P04058 whole entry): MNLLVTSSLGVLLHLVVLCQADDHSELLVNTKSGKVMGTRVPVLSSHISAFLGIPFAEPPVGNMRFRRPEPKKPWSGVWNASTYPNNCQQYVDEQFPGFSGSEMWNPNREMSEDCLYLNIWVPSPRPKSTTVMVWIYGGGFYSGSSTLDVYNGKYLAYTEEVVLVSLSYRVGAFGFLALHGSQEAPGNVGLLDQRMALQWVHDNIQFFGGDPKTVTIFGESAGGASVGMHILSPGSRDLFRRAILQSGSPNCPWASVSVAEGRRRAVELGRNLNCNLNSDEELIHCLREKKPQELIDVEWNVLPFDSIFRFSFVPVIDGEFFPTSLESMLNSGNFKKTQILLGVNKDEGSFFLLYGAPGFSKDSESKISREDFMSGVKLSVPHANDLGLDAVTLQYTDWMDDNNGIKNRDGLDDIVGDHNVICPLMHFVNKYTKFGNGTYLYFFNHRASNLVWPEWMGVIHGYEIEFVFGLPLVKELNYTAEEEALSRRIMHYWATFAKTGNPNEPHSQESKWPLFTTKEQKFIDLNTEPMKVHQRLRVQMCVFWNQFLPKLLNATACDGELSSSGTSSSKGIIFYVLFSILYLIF

`C/C=C(\C)C(=O)N[C@@H]1[C@H](OC(C)=O)[C@@H]2CC[C@@H]3[C@H](CC[C@]4(C)[C@@H]([C@H](C)N(C)C)CC[C@@H]34)[C@@]2(C)C[C@@H]1O`: on Acetylcholinesterase [1], half-maximal inhibition (IC50) was put at 182 µM. For `C[C@@H]([C@H]1CC[C@H]2[C@@H]3CC[C@H]4C(=O)C(NC(=O)c5ccccc5)=CC[C@]4(C)[C@H]3CC[C@]12C)N(C)C`, the IC50 (commonly the point on the concentration scale where inhibition reaches its midpoint) against Acetylcholinesterase [1] was 5.2 µM. The affinity at Acetylcholinesterase [2], expressed as Ki, was 3.03 µM. At Acetylcholinesterase [1], `C/C(=C\C(=O)N(C)[C@H]1CC[C@@]2(C)[C@@H](CC[C@@H]3[C@@H]2CC[C@]2(C)C([C@H](C)N(C)C)=CC[C@@H]32)C1)C(C)C` yielded an IC50 of 6.2 µM. Besides, the Ki – broadly, the dissociation constant of the complex between target and ligand, obtained from inhibition or displacement – on Acetylcholinesterase [2] amounted to 10.7 µM.

In turn, `C/C=C(\C)C(=O)N[C@H]1CC[C@@]2(C)C(=CC[C@H]3[C@@H]4CC[C@H]([C@H](C)N(C)C)[C@@]4(C)CC[C@@H]32)C1=O` came in with an IC50 at Acetylcholinesterase [1] of 7.1 µM. On Acetylcholinesterase [2], this molecule returned a Ki of 5.4 µM. Consider `C/C(=C\C(=O)N[C@H]1CC[C@@]2(C)[C@@H](CC[C@@H]3[C@@H]2CC[C@]2(C)[C@@H]([C@H](C)N(C)C)CC[C@@H]32)C1)C(C)C`, for which the IC50 at Acetylcholinesterase [1] came to 50.6 µM. This molecule came in with a Ki on Acetylcholinesterase [2] of 9.05 µM.

Molecule `C[C@@H]([C@H]1CC[C@H]2[C@@H]3CC[C@H]4C[C@@H](NC(=O)c5ccccc5)[C@@H](O)C[C@]4(C)[C@H]3CC[C@]12C)N(C)C` showed an IC50 against Acetylcholinesterase [1] of 78.2 µM.

As to `C/C=C(\C)C(=O)N[C@H]1CC[C@@]2(C)C(=CC[C@H]3C4=CC[C@H]([C@H](C)N(C)C)[C@@]4(C)CC[C@@H]32)C1=O`, on Acetylcholinesterase [2], the affinity, expressed as Ki, was 2.65 µM.

On Acetylcholinesterase [1], `C/C=C(\C)C(=O)N[C@@H]1[C@H](OC(C)=O)[C@@H]2CC[C@H]3C4=CC[C@H]([C@H](C)N(C)C)[C@@]4(C)CC[C@@H]3[C@@]2(C)C[C@@H]1O` had a half-inhibitory concentration (IC50) of 61.3 µM. In addition, on Acetylcholinesterase [2], the Ki was determined as 134 µM. In turn, `C[C@@H]([C@H]1CC[C@H]2[C@@H]3CC[C@H]4C[C@@H](N(C)C(=O)/C=C/c5ccccc5)CC[C@]4(C)[C@H]3CC[C@]12C)N(C)C` [SALIGCINNAMIDE] gave an IC50 at Acetylcholinesterase [1] of 19.9 µM. For the same molecule, at Acetylcholinesterase [2], the affinity corresponds to a Ki of 12.2 µM.

With `CC(=O)N[C@H]1CC[C@@]2(C)[C@@H](CC[C@@H]3[C@@H]2CC[C@]2(C)[C@@H]([C@H](C)N(C)C)CC[C@@H]32)C1`, the IC50 on Acetylcholinesterase [1] is 69.9 µM. On Acetylcholinesterase [2], the affinity, expressed as Ki, was 90.3 µM.

Take `C/C=C(\C)C(=O)N[C@@H]1C=C2CC[C@@H]3[C@H](CC[C@]4(C)C([C@H](C)N(C)C)=CC[C@@H]34)[C@@]2(C)C[C@H]1O`: the IC50 on Acetylcholinesterase [1] came out at 185 µM. In turn, `CN[C@H]1CC[C@@]2(C)[C@@H](CC[C@@H]3[C@@H]2CC[C@]2(C)[C@@H]([C@H](C)N(C)C(C)=O)CC[C@@H]32)C1` came in with an IC50 against Acetylcholinesterase [1] of 204 µM. Besides, at Acetylcholinesterase [2], the Ki amounted to 216 µM.

For the molecule `C/C(=C\C(=O)N(C)[C@H]1CC[C@@]2(C)[C@@H](CC[C@@H]3[C@@H]2CC[C@]2(C)[C@@H]([C@H](C)N(C)C)CC[C@@H]32)C1)C(C)C`, the inhibition constant (Ki) on Acetylcholinesterase [2] was found to be 4.1 µM. `CC(=O)O[C@H]1[C@@H](NC(=O)c2ccccc2)[C@@H](O)C[C@]2(C)[C@H]3CC[C@]4(C)[C@@H]([C@H](C)N(C)C)CC[C@H]4[C@@H]3CC[C@@H]12` yielded an IC50 on Acetylcholinesterase [1] of 228 µM. The same molecule came in with a Ki at Acetylcholinesterase [2] of 126 µM.

Molecule `CC(=O)O[C@H]1[C@@H](NC(=O)C=C(C)C)CC[C@]2(C)[C@H]3CC[C@]4(C)[C@@H]([C@H](C)N(C)C)CC[C@H]4[C@@H]3CC[C@@H]12` registered an IC50 on Acetylcholinesterase [1] of 8.5 µM. This molecule gave an inhibitory constant (Ki) on Acetylcholinesterase [2] of 17.6 µM.
